Laboratory results from patent US20100063041A1, “NOVEL PHENYLPROPIONIC ACID DERIVATIVES AS PEROXISOME PROLIFERATOR-ACTIVATED GAMMA RECEPTOR MODULATORS, METHOD OF THE SAME, AND PHARMACEUTICAL COMPOSITION COMPRISING THE SAME” (priority 2007, published 2010).
Substitutions are numbered along the chain they refer to.

Assays:
[1] = 12-week clinical, P>0.05, cited from earlier work
Mouse PPAR-α = target: T1, Mouse PPAR-α (Mus musculus, UniProt P23204); assay: transactivation assay (GAL4 chimeric receptor, luciferase) in CV-1 cells; assay type: cell-based; settings: for Emax: CV-1, Relative Response % to maximum effects of the positive control drug, read-out: Max % Mouse PPAR-α; for EC50: CV-1 cells, GAL4 chimeric receptor, 24 hours
T1 construct: expressed in transfected cells; host or cells: CV-1 (CCL-70, ATCC)
T1 sequence (P23204 239-466 limits assumed): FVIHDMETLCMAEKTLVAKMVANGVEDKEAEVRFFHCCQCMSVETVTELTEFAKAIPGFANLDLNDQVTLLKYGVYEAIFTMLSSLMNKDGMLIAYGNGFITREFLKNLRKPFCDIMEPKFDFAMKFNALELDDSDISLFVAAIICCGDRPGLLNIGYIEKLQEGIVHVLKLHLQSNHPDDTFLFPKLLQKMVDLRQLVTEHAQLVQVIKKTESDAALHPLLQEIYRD
Method: (§1) Following induction of transient intracellular expression of PPAR-α and -γ, an ability of the inventive compounds to induce transactivation of PPARs via activation of each PPAR was evaluated as an efficacy of the compound (transactivation assay).
(§2) For this assay, the African green monkey kidney cell line CV-1 (CCL-70, ATCC) was used as a test cell line, and PPAR-α and -γ were murine- and human-derived PPARs. Samples used were compounds prepared in Examples 19, 21, 23, 25, 26, 27, 31, 33, 34, 36, 38, 40, 42, 43 and 50. As a positive control drug, 3-4-[2-(2-phenyl-4-methyl-1,3-oxazole)ethyloxy]phenyl-(2S)-[(1-methyl-3-oxo-3-phenyl)propenyl]aminopropionic acid was used that is a PPAR-α or -γ agonist which was once under development and whose clinical trials and studies were suspended at phase III. A chimeric receptor was adopted to circumvent the probable interference due to endogenous receptor activation (Jian-Shen Q. et al., Mol Cell Biol (1995) 15(3):1817-1825). The chimeric receptor was constructed as a fusion of a PPAR-α or -γ ligand-binding domain with a DNA-binding domain of GAL4 which is a yeast transactivator.
(§3) The CV-1 cells were transiently transfected with each of chimeric receptor-expressing DNA constructs and each of DNA constructs comprising 5 copies of the GAL4 DNA-binding domain and capable of inducing expression of firefly luciferase or Renilla luciferase using a Lipofectamine Plus reagent (Invitrogen, USA). After transfection for 3 hours, the culture media were replaced with DMEM containing the above samples and 10% fetal bovine serum. 24 hours later, the firefly luciferase activity and Renilla luciferase activity were continuously assayed while adding an equal amount of a dual luciferase assay reagent (Promega, USA) to the cell-containing media. The transfection efficiency was normalized against Renilla luciferase activity (Motomura W. et al., Int J Cancer (2004) 108(1):41-6). The PPAR-α and -γ activity was determined by calculating Relative Response % to maximum effects of the positive control drug, and conducting multiple dose evaluation of the inventive compounds to calculate EC50, which is the concentration of a drug which produces 50% activation relative to maximum effects of the inventive compounds, by nonlinear regression analysis.

Human PPAR-α = target: T2, Human PPAR-α (Homo sapiens, UniProt Q07869); assay: as above; assay type: cell-based; settings: for Emax: CV-1, Relative Response % to maximum effects of the positive control drug, read-out: Max % Human PPAR-α; for EC50: CV-1 cells, GAL4 chimeric receptor, 24 hours
T2 construct: expressed in transfected cells; host or cells: CV-1 (CCL-70, ATCC)
T2 sequence (Q07869 239-466 limits assumed): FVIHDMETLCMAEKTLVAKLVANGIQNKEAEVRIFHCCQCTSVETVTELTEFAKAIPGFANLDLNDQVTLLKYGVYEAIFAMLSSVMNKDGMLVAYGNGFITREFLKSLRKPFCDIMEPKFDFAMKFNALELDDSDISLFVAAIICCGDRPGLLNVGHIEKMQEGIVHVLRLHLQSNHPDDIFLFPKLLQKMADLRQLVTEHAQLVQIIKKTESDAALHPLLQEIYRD
Method: as §1, §2, §3

Mouse PPAR-γ = target: T3, Mouse PPAR-γ (Mus musculus, UniProt P37238); assay: as above; assay type: cell-based; settings: for Emax: CV-1, Relative Response % to maximum effects of the positive control drug, read-out: Max % Mouse PPAR-γ; for EC50: CV-1 cells, GAL4 chimeric receptor, 24 hours
T3 construct: expressed in transfected cells; host or cells: CV-1 (CCL-70, ATCC)
T3 sequence (P37238 238-503 limits assumed): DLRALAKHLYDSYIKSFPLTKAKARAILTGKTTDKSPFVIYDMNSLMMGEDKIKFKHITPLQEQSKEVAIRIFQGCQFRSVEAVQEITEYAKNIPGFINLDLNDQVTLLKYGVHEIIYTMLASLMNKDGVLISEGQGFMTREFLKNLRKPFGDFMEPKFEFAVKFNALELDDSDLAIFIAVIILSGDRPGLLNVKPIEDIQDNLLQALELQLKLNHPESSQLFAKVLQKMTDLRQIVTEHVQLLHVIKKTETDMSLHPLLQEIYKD
Method: as §1, §2, §3

Human PPAR-γ = target: T4, Human PPAR-γ (Homo sapiens, UniProt P37231); assay: as above; assay type: cell-based; settings: for Emax: CV-1, Relative Response % to maximum effects of the positive control drug, read-out: Max % Human PPAR-γ; for EC50: CV-1 cells, GAL4 chimeric receptor, 24 hours
T4 construct: expressed in transfected cells; host or cells: CV-1 (CCL-70, ATCC)
T4 sequence (P37231 238-503 limits assumed): T3 sequence (P37238 238-503 limits assumed) with N93S, I98V, N146S, V226L, H245Q
Method: as §1, §2, §3

[2] = tested on: diabetic male mice (db/db mice); assay: blood glucose-lowering effects in mice with hyperglycemic diabetes; assay type: in vivo; settings: for % Inhibition vs. Control / Blood glucose D5: oral once a day for 5 days
Method: Effects of PPAR compounds on a blood glucose level were evaluated in 7-week-old diabetic male mice (db/db mice). Blood was collected from caudal veins of the diabetic animals to which the drug was administered once a day for 5 consecutive days, and the blood glucose level was then measured with a blood glucose test meter (ACCU CHEK Active®).

Trap220 = settings: cited from earlier work

Emax (Mouse PPAR-α) [%]	Emax (Human PPAR-α) [%]	Emax (Mouse PPAR-γ) [%]	EC50 (Mouse PPAR-γ) [nM]	Emax (Human PPAR-γ) [%]	EC50 (Human PPAR-γ) [nM]	EC50 (Human PPAR-α) [nM]	EC50 (Mouse PPAR-α) [nM]	SMILES	% Inhibition vs. Control ([2]; 0.3 mg/kg) [%]	Blood glucose D5 ([2]; 0.3 mg/kg) [mg/dL]	% Inhibition vs. Control ([2]; 1 mg/kg) [%]	Blood glucose D5 ([2]; 1 mg/kg) [mg/dL]	% Inhibition vs. Control ([2]; 3 mg/kg) [%]	Blood glucose D5 ([2]; 3 mg/kg) [mg/dL]	Blood glucose D0 ([2]; oral, 0.3 mg/kg) [mg/dL]	Blood glucose D0 ([2]; oral, 1 mg/kg) [mg/dL]	Blood glucose D0 ([2]; oral, 3 mg/kg) [mg/dL]	% Inhibition vs. Control ([2]; 10 mg/kg) [%]	Blood glucose D5 ([2]; 10 mg/kg) [mg/dL]	Blood glucose D0 ([2]; oral, 10 mg/kg) [mg/dL]	other results
–	–	–	–	–	–	–	–	CC(=O)NCCOC(=O)[C@H](Oc1cccc(C(F)(F)F)c1)c1ccc(Cl)cc1 [metaglidasen]	–	–	–	–	–	–	–	–	–	–	–	–	edema incidence rate ([1]; 20% in control group): 7.2%; body weight ([1]; +1.3 kg in control group): +0.6 kg
4	0	18	883	15	472	–	–	CCO[C@@H](Cc1ccc(OCc2sc(-c3ccc(-c4csc(C)n4)cc3)cc2C)cc1)C(=O)O [Example 21, (S)-2-ethoxy-3-(4-((3-methyl-5-(4-(2-methylthiazol-4-yl)phenyl)thiophen-2-yl)methoxy)phenyl)propionic acid]	28	354 ± 67	29	354 ± 58	36	319 ± 63	483 ± 38	482 ± 45	483 ± 45	–	–	–	% Inhibition vs. Control ([2]; 0.1 mg/kg): 16%; Blood glucose D5 ([2]; 0.1 mg/kg): 416 ± 45 mg/dL; Blood glucose D0 ([2]; oral, 0.1 mg/kg): 485 ± 44 mg/dL
9	18	31	322	32	111	1010	–	CCO[C@@H](Cc1ccc(OCc2sc(-c3ccc(-c4nnn(COC)n4)cc3)cc2C)cc1)C(=O)O [Example 32, (S)-2-ethoxy-3-(4-((5-(4-(2-(methoxymethyl)-2H-tetrazol-5-yl)phenyl)-3-methylthiophen-2-yl)methoxy)phenyl)propionic acid]	21	416 ± 53	–	–	61	205 ± 42	500 ± 32	–	498 ± 30	–	–	–	–
–	–	–	–	–	–	–	–	O=S(=O)(Nc1cc(Cl)c(Oc2cnc3ccccc3c2)c(Cl)c1)c1ccc(Cl)cc1Cl [INT-131, reference compound]	–	–	8	350 ± 31	25	286 ± 34	–	381 ± 30	382 ± 31	38	237 ± 19	382 ± 28	binding capacity for Trap220 (Trap220): attenuated binding capacity; ED30 ([2]; oral, blood glucose): 4 mg/kg
19	23	34	142	30	62	3150	6160	CCO[C@@H](Cc1ccc(OCc2sc(-c3ccc(-c4cc(C)no4)cc3)cc2C)cc1)C(=O)O [Example 41, (S)-2-ethoxy-3-(4-((3-methyl-5-(4-(3-methylisoxazol-5-yl)phenyl)thiophen-2-yl)methoxy)phenyl)propionic acid]	20	378 ± 44	36	304 ± 13	46	257 ± 40	422 ± 36	422 ± 30	423 ± 35	–	–	–	% Inhibition vs. Control ([2]; 0.1 mg/kg): 4%; Blood glucose D5 ([2]; 0.1 mg/kg): 455 ± 67 mg/dL; Blood glucose D0 ([2]; oral, 0.1 mg/kg): 422 ± 34 mg/dL
25	22	24	31	27	7	2830	12100	CCO[C@@H](Cc1ccc(OCc2sc(-c3ccc(-c4cc(C(C)(C)C)on4)cc3)cc2C)cc1)C(=O)O [Example 48, (S)-3-(4-((5-(4-(5-tert-butylisoxazol-3-yl)phenyl)-3-methylthiophen-2-yl)methoxy)phenyl)-2-ethoxypropionic acid]	–	–	24	375 ± 25	30	347 ± 70	–	452 ± 22	453 ± 20	43	280 ± 40	453 ± 43	–
21	25	48	354	37	41	2300	4300	CCO[C@@H](Cc1ccc(OCc2sc(-c3ccc(-c4cc(COC)on4)cc3)cc2C)cc1)C(=O)O [Example 36, (S)-2-ethoxy-3-(4-((5-(4-(5-(methoxymethyl)isoxazol-3-yl)phenyl)-3-methylthiophen-2-yl)methoxy)phenyl)propionic acid]	–	–	33	381 ± 73	–	–	–	577 ± 15	–	62	278 ± 56	577 ± 16	–
